The nature of data set [1]: Inhibition of bovine brain FTase using 3H-farnesyl diphosphate as substrate incubated for 30 mins by beta-plate counting method. More on the design: species or system Bos taurus.
Data set [2] can be described thus: Inhibition of partially purified human FTase using dan-syl-GCVLS peptide as substrate measured for 15 mins by fluorescence based assay.
The nature of data set [3]: Cytotoxicity against human tumor cell line. Format: cell-based.
Data set [4] can be described thus: Inhibition of Trypanosoma brucei FTase.
A further data set has as its system Plasmodium falciparum. Kind of data set: Antiplasmodial activity against chloroquine-resistant Plasmodium falciparum FcB1 infected in erythrocyte incubated for 48 hrs by [3H]-hypoxanthine incorporation assay. Format: functional, organism-based.
A short description of data set [5]: Inhibition of recombinant human FTase.

In the case of `CC(=O)OC(CCCC12OC(C(=O)O)C(O)(C(=O)O)C(C(=O)O)(O1)[C@H](OC(=O)CC/C=C/C(C)CCCc1ccccc1)[C@H]2O)C(C)Cc1ccccc1` (stereo partly specified), 150 nM corresponded to half-maximal inhibition in data set [1] (IC50).
Turning to `CC(C)=CCC/C(C)=C/CCc1ccc2c(c1)C(=O)c1ccccc1C2=O`, the half-maximal inhibitory concentration (IC50) (commonly the concentration at which inhibition is half-maximal) in data set [2] is 1400 nM; in data set [4] (read-out: IC50), 1700 nM; with Plasmodium falciparum, above 28000 nM. For the same compound, the Activity entry in data set [3] was “Non-Toxic”.
The matching figures for `CC(C)=CCCC1(C)C=Cc2c(-c3c4c(c5ccccc5c3O)OC(C)(CCC=C(C)C)C=C4)c(O)c3ccccc3c2O1` (stereo unspecified): 4400 nM, 6100 nM, 10600 nM and “Non-Toxic”.
In data set [1], `CCCCCCCCCC(=O)O[C@@H]1[C@@H](O)C2(CCCC(OC(C)=O)C(C)C/C=C/c3ccccc3)OC(C(=O)O)C(O)(C(=O)O)C1(C(=O)O)O2` (stereo partly specified) gave an IC50 of 100 nM.
For the compound `CC(C)=CCC/C(C)=C/C1Oc2c(c3c(c4ccccc24)OC(C)(CCC=C(C)C)C=C3)C2=C1C(=O)c1ccccc1C2=O` (stereo unspecified), the IC50 in data set [2] is 1100 nM; in data set [4] (read-out: IC50) it was 2700 nM; in the data set on Plasmodium falciparum it was above 17000 nM. Also, the Activity entry in data set [3] is listed as “Non-Toxic”.
Turning to `CC(C)=CCC/C(C)=C/CCC1(C)C=Cc2c3c(c4ccccc4c2O1)OC(C)(CC/C=C(\C)CCC=C(C)C)C=C3` (stereo unspecified), the values for the IC50 (in data set [2]; in data set [4] (read-out: IC50); with Plasmodium falciparum) were 1700 nM, 2600 nM and above 18000 nM, respectively. In addition, the Activity result in data set [3] is recorded as “Non-Toxic”.
For the compound `CC(C)=CCCC1(C)C=Cc2c3c(c4ccccc4c2O1)OC(C)(CCC=C(C)C)C=C3` (stereo unspecified), the 50% inhibitory concentration (IC50) is 4400 nM in data set [2], 7900 nM in data set [4] (read-out: IC50) and above 23000 nM with Plasmodium falciparum. In addition, in data set [3], the Activity entry is recorded as “Non-Toxic”.
With `CC(C)=CCC/C(C)=C/CCC1(C)C=Cc2c(-c3c4c(c5ccccc5c3O)OC(C)(CC/C=C(\C)CCC=C(C)C)C=C4)c(O)c3ccccc3c2O1` (stereo unspecified), the values for the IC50 (in data set [2]; in data set [4] (read-out: IC50); with Plasmodium falciparum) were 1800 nM, 8700 nM and 7050 nM, respectively. Moreover, in data set [3], the Activity result is recorded as “Non-Toxic”.
`CC(C)=CCC/C(C)=C/CC/C(C)=C/C1Oc2c(c3c(c4ccccc24)OC(C)(CC/C=C(\C)CCC=C(C)C)C=C3)C2=C1C(=O)c1ccccc1C2=O` (stereo unspecified): the IC50 in data set [2] is 9980 nM; in data set [4], “Not Active”; with Plasmodium falciparum, above 14000 nM. Also, the Activity result in data set [3] was “Non-Toxic”.
Regarding `CCC(CC(C)C(=O)O)C(=O)CC/C(C)=C/C(C)C/C(C)=C/C(C)C(O)C(C)CCC(CCCC/C=C/C(C)CCC(C)OC(=O)CC(CC(=O)O)C(=O)O)OC(=O)CC(CC(=O)O)C(=O)O` (stereo unspecified), the IC50 in data set [5] amounted to 50 nM.
With `CCCCCCCC(=O)O[C@@H]1[C@@H](O)C2(CCCC(OC(C)=O)C(C)C/C=C/c3ccccc3)OC(C(=O)O)C(O)(C(=O)O)C1(C(=O)O)O2` (stereo partly specified), in data set [1], it took 100 nM to reach half-maximal inhibition (IC50).
Turning to `CC(C)=CCCc1ccc2c(c1)C(=O)c1ccccc1C2=O`, the IC50 in data set [2] was 1500 nM; in data set [4] (read-out: IC50), 1400 nM; in the data set on Plasmodium falciparum, above 34000 nM. In addition, the Activity entry in data set [3] is recorded as “Non-Toxic”.
Turning to `O=C(O)C/C(C(=O)O)=C(/CCCCCCCCCCCCCCCCOS(=O)(=O)O)C(=O)O`, in data set [5], the IC50 amounted to 14 nM.
On to `CCC(CC(C)C(=O)O)C(=O)CC/C1=C/C(C)C/C(C)=C/C(C)C(O)C(C)CCC(CCCC/C=C/C(C)CCC(C)OC(=O)CC(CC(=O)O)C(=O)O)OC(=O)CC(C(=O)O)CC(=O)OC1` (stereo unspecified) [ACTINOPLANIC ACID A], for which the IC50 in data set [5] turned out to be 230 nM.
Take `CC(C)=CC1Oc2c(c3c(c4ccccc24)OC(C)(C)C=C3)C2=C1C(=O)c1ccccc1C2=O` (stereo unspecified) [TECOMAQUINONE]: the 50% inhibitory concentration (IC50) in data set [2] was 65 nM; in data set [4] (read-out: IC50), 112 nM; in the data set with Plasmodium falciparum, above 22000 nM. Moreover, the Activity entry in data set [3] is listed as “Non-Toxic”.
For `CC1(C)C=Cc2c(-c3c4c(c5ccccc5c3O)OC(C)(C)C=C4)c(O)c3ccccc3c2O1` [tectol] the same measures were 2090 nM, 1730 nM, 3440 nM and “Non-Toxic”.

The values above are taken from ChEMBL document CHEMBL4715722, “Discovery and preliminary structure-activity relationship studies on tecomaquinone I and tectol as novel farnesyltransferase and plasmodial inhibitors” (Bioorg Med Chem, 2016).
